According to PMC4669759 (Cell Death & Disease, 2015):

What was measured:
[1] = system: OPM-2 cells; assay: Navitoclax / A-1210477 combination cell viability, OPM-2 cells; assay type: cell-based; conditions: OPM-2, 48 h
Experimental: (§1) Figure 6 A-1210477 synergizes with navitoclax to kill hematological and solid tumor cell lines. BxPC-3, EJ-1, H23, and OPM-2 cells were treated with increasing concentrations of navitoclax in the presence or absence of increasing concentrations of A-1210477 for 48 h before assessing cell viability. All data points represent the means of triplicate experiments, with error bars indicating the S.E.M. TEXT PRINTED IN THE PICTURE: A-1210477 + navitoclax: Bliss sum (BxPC-3): 716; Bliss sum (EJ-1): 464; Bliss sum (H23): 76; Bliss sum (OPM-2): 946 DOUBTS OF THE COPYIST ABOUT THIS PICTURE: The Bliss sums apply to the combination of A-1210477 and navitoclax. The picture prints the two names separately (legend heading and axis title), not as one joined label.
(§2) Adherent cell lines were seeded at 50 000 cells per well in 96-well plates and treated for 48 h with compounds diluted in half-log steps starting at 30 μM and ending at 0.001 μM. Multiple myeloma cell lines were seeded at 15 000–20 000 cells per well and treated similarly. Effects on proliferation and viability were determined using CellTiter-Glo reagent from Promega (Madison, WI, USA) according to the manufacturer's instructions. IC50 values were determined by non-linear regression analysis of the concentration response data.

[2] = set-up: method as in PMID 25679114; conditions: cited from earlier work
[3] = system: BxPC-3 cells; assay: Navitoclax / A-1210477 combination cell viability, BxPC-3 cells; assay type: cell-based; conditions: BxPC-3, 48 h
Experimental: as §1, §2

[4] = system: H929 cells; assay: Hallmarks of apoptosis in H929 cells (caspase-3/-7, mitochondrial membrane depolarization, phosphatidylserine); assay type: cell-based, human; conditions: H929, 4 h
Experimental: Figure 4 Indole-2-carboxylic acids induce the hallmarks of apoptosis in MCL-1-dependent cancer cell line H929. (a) Digitonin-permeabilized H929 cells were treated with 10 μM BH3 peptides for 4 h, and intact H929 cells were incubated with increasing concentrations (0.1–10 μM) of A-1208746 for 4 h before assessing the levels of cytochrome c released into the cytosol. (b) H929 and RS4;11 cells were incubated with increasing concentrations of MCL-1 inhibitors or the BCL-2-selective inhibitor ABT-199 (venetoclax) for 48 h before determining cell viability. Cell killing IC50s are plotted with each value representing the mean of three separate experiments. […]
H929 cells were cultured in RPMI 1640 (Invitrogen Corp., Grand Island, NY, USA) supplemented with 10% fetal bovine serum (Invitrogen), 1% sodium pyruvate, 25 mM HEPES, 4.5 g/l glucose, and 1% penicillin/streptomycin (Sigma) and maintained in a humidified chamber at 37 °C containing 5% CO2. […] Following treatment, the hallmarks of apoptosis (activation of caspase-3/-7, mitochondrial membrane depolarization, and phosphatidylserine externalization) were measured using the IntelliCyt (Albuquerque, NM, USA) MultiCyt 4-Plex Apoptosis Screening Kit according to the manufacturer's instructions and read by flow cytometry using a HTFC screening system (IntelliCyt). […] Data were expressed as the percentage of singlet cells. […]

Cc1nn(C)c(COc2ccc(N3CCN(S(=O)(=O)N(C)C)CC3)cc2)c1-c1cccc2c(CCCOc3cccc4ccccc34)c(C(=O)O)n(CCN3CCOCC3)c12 [A-1210477]
potentiation of navitoclax [1]: substantially shifted the dose–response curve of navitoclax
human protein binding [2]: > 99%
potentiation of navitoclax [3]: substantially shifted the dose–response curve of navitoclax
induction of hallmarks of apoptosis (mitochondrial membrane depolarization, caspase-3/-7 activation, phosphatidylserine externalization) [4]: induced the hallmarks of apoptosis
